Measured values from patent publication US20240218022A1, “ANTI-VISTA MACROCYCLIC PEPTIDES AND COMPOSITIONS” (BRISTOL-MYERS SQUIBB COMPANY, priority 2022, published 2024).
Read-outs that look alike come from different tables or passages of the source. Blank lines part the entries; values can stand above or below the compound they belong to. Starred links: 1 amine or outer side, 2 acyl side, 3 side chain; linkers in the order of their positions; H or OH if unused. Positions of bridges follow the written chain, without caps; N, C: chain ends. Non-standard residues stand in square brackets, D forms with d. Residues, ends and D or L forms follow the SMILES beside them. ξ: configuration not given here. Phe(3-CF3) = N[C@@H](Cc1cccc(C(F)(F)F)c1)C(=O)O; X1 = C=CCOc1ccccc1C[C@H](N[*:1])C(=O)[*:2]; Phe(3-CN) = N#Cc1cccc(C[C@H](N)C(=O)O)c1; Phe(3-Cl) = N[C@@H](Cc1cccc(Cl)c1)C(=O)O; Phe(3-F) = N[C@@H](Cc1cccc(F)c1)C(=O)O; Phe(3-Me) = Cc1cccc(C[C@H](N)C(=O)O)c1; 2Nal = N[C@@H](Cc1ccc2ccccc2c1)C(=O)O; Ahp(2) = CCCCC[C@H](N)C(=O)O; NMeNle = CCCC[C@H](NC)C(=O)O; Tle = CC(C)(C)[C@H](N)C(=O)O; NHexGly = CCCCCCNCC(=O)O; Nle = CCCC[C@H](N)C(=O)O; Orn = NCCC[C@H](N)C(=O)O; ξD = NC(CC(=O)O)C(=O)O; ξS = NC(CO)C(=O)O

Molecular target: T1, mouse VISTA (mVISTA) (Mus musculus, UniProt Q9D659)
T1 construct: expressed in transfected cells; host or cells: Human embryonic kidney 293T cells
T1 sequence (Q9D659 33-308): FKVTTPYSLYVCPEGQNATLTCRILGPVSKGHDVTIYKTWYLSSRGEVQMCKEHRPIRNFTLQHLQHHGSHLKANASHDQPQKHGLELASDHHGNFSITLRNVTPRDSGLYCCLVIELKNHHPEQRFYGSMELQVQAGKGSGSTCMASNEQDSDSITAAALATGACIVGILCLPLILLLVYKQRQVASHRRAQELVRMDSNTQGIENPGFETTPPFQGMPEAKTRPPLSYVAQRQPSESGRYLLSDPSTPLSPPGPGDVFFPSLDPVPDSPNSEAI
Assay: Cell-Based Binding High-Content Assay For mVISTA (HC CBA mVISTA)
Conditions: read-out: HC CBA mVISTA IC50
Procedure, shortened: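 Read-out: Alexa 647–streptavidin signal imaged on fixed, Hoechst-stained mVISTA-293T cells, with IC50 taken from a four-parameter logistic curve. Compounds competed with 2 nM biotinylated peptide for 30 min at room temperature, tested under both no-wash and wash (1 h compound, media exchange, 1 h) formats.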

SMILES: CCCCCCN1CC(=O)N[C@@H](Cc2ccc(O)cc2)C(=O)N[C@@H](CC(C)C)C(=O)NCC(=O)N[C@@H](CCCNC(=N)N)C(=O)N[C@@H](Cc2ccc(O)cc2)C(=O)N[C@@H](CCCCC)C(=O)N2CCC[C@H]2C(=O)N[C@@H](C(C)C)C(=O)N[C@@H](CC(=O)O)C(=O)N[C@H](C(=O)NCC(N)=O)CSCC(=O)N[C@@H](Cc2ccc3ccccc3c2)C(=O)N[C@@H](Cc2c[nH]c3ccccc23)C(=O)N[C@@H](CC(=O)O)C1=O [compound 1264] ({CH2CO}-[2Nal]WD[NHexGly]YLGRY[Ahp(2)]PVDCG-NH2; thioether N-14)
- IC50 (cell-based binding high-content assay, mVISTA, the 15th table): 28.4 nM

SMILES: CCCCCCN1CC(=O)N[C@@H](Cc2ccc(O)cc2)C(=O)N[C@@H](C(C)C)C(=O)NCC(=O)N[C@@H](CCCNC(=N)N)C(=O)N[C@@H](CC(C)C)C(=O)N[C@@H](CCCCC)C(=O)N2CCC[C@H]2C(=O)N[C@@H](C(C)C)C(=O)N[C@@H](CC(=O)O)C(=O)N[C@H](C(=O)NCC(N)=O)CSCC(=O)N[C@@H](Cc2ccccc2)C(=O)N[C@@H](Cc2ccc3ccccc3c2)C(=O)N[C@@H](CC(=O)O)C1=O [compound 1324] ({CH2CO}-F[2Nal]D[NHexGly]YVGRL[Ahp(2)]PVDCG-NH2; thioether N-14)
- IC50: 48.2 nM

SMILES: CCCCCCN1CC(=O)N[C@@H](Cc2ccc(O)cc2)C(=O)N[C@@H](CCCCC)C(=O)NCC(=O)N[C@@H](CCCNC(=N)N)C(=O)N[C@@H](CC(C)C)C(=O)N[C@@H](CCCCC)C(=O)N2CCC[C@H]2C(=O)N[C@@H](C(C)C)C(=O)N[C@@H](CO)C(=O)N[C@H](C(=O)NCC(N)=O)CSCC(=O)N[C@@H](Cc2ccccc2)C(=O)N[C@@H](Cc2ccccc2)C(=O)N[C@@H](CC(=O)O)C1=O [compound 1325] ({CH2CO}-FFD[NHexGly]Y[Ahp(2)]GRL[Ahp(2)]PVSCG-NH2; thioether N-14)
- IC50: 24.3 nM

SMILES: CCCCCCN1CC(=O)N[C@@H](Cc2ccc(O)cc2)C(=O)N[C@@H](CCCC)C(=O)N[C@@H](CC(=O)O)C(=O)N[C@@H](CCCN)C(=O)N[C@@H](CC(C)C)C(=O)N[C@@H](CCCCC)C(=O)N2CCC[C@H]2C(=O)N[C@@H](C(C)C)C(=O)N[C@@H](CC(=O)O)C(=O)N[C@H](C(=O)NC(CC(=O)O)C(N)=O)CSCC(=O)N[C@@H](Cc2ccccc2)C(=O)N[C@@H](Cc2cccc(C)c2)C(=O)N[C@@H](CC(=O)O)C1=O (stereo partly drawn) [compound 1326] ({CH2CO}-F[Phe(3-Me)]D[NHexGly]Y[Nle]D[Orn]L[Ahp(2)]PVDC[ξD]-NH2; thioether N-14)
- IC50: 17.5 nM

SMILES: CCCCCCN1CC(=O)N[C@@H](Cc2ccc(O)cc2)C(=O)N[C@@H](CCCC)C(=O)N[C@@H](CC(=O)O)C(=O)N[C@@H](CCCNC(=N)N)C(=O)N[C@@H](CC(C)C)C(=O)N[C@@H](CCCCC)C(=O)N2CCC[C@H]2C(=O)N[C@@H](C(C)C)C(=O)N[C@@H](CC(=O)O)C(=O)N[C@H](C(=O)NC(CC(=O)O)C(N)=O)CSCC(=O)N[C@@H](Cc2ccccc2)C(=O)N[C@@H](Cc2cccc(C)c2)C(=O)N[C@@H](CC(=O)O)C1=O (stereo partly drawn) [compound 1327] ({CH2CO}-F[Phe(3-Me)]D[NHexGly]Y[Nle]DRL[Ahp(2)]PVDC[ξD]-NH2; thioether N-14)
- IC50: 13.9 nM

SMILES: CCCCCCN1CC(=O)N[C@@H](Cc2ccc(O)cc2)C(=O)N[C@@H](CC(C)C)C(=O)N[C@@H](CC(N)=O)C(=O)N[C@@H](CCCNC(=N)N)C(=O)N[C@@H](CC(C)C)C(=O)N[C@@H](CCCCC)C(=O)N2CCC[C@H]2C(=O)N[C@@H](C(C)C)C(=O)N[C@@H](C(C)C)C(=O)N[C@H](C(=O)NCC(=O)O)CSCC(=O)N[C@@H](Cc2ccccc2)C(=O)N[C@@H](Cc2cccc(C)c2)C(=O)N[C@@H](CC(=O)O)C1=O [compound 1328] ({CH2CO}-F[Phe(3-Me)]D[NHexGly]YLNRL[Ahp(2)]PVVCG-OH; thioether N-14)
- IC50: 2 nM

SMILES: C=CCOc1ccccc1C[C@@H]1NC(=O)[C@H](Cc2ccccc2)NC(=O)CSC[C@@H](C(=O)NCC(N)=O)NC(=O)[C@H](CO)NC(=O)[C@H](C(C)(C)C)NC(=O)[C@@H]2CCCN2C(=O)[C@H](CCCCC)NC(=O)[C@H](CCCC)N(C)C(=O)[C@H](CCCNC(=N)N)NC(=O)[C@H](CC(N)=O)NC(=O)[C@H](CC(C)C)NC(=O)[C@H](Cc2ccc(O)cc2)NC(=O)CN(CCCCCC)C(=O)[C@H](CC(=O)O)NC1=O [compound 1338] ({CH2CO}-F[X1]D[NHexGly]YLNR[NMeNle][Ahp(2)]P[Tle]SCG-NH2; thioether N-14)
- IC50: 34.6 nM

SMILES: CCCCCCN1CC(=O)N[C@@H](Cc2ccc(O)cc2)C(=O)N[C@@H](CC(C)C)C(=O)N[C@@H](CC(N)=O)C(=O)N[C@@H](CCCNC(=N)N)C(=O)N(C)[C@@H](CCCC)C(=O)N[C@@H](CCCCC)C(=O)N2CCC[C@H]2C(=O)N[C@@H](C(C)(C)C)C(=O)N[C@@H](CO)C(=O)N[C@H](C(=O)NCC(N)=O)CSCC(=O)N[C@@H](Cc2ccccc2)C(=O)N[C@@H](Cc2cccc(Cl)c2)C(=O)N[C@@H](CC(=O)O)C1=O [compound 1339] ({CH2CO}-F[Phe(3-Cl)]D[NHexGly]YLNR[NMeNle][Ahp(2)]P[Tle]SCG-NH2; thioether N-14)
- IC50: 31.6 nM

SMILES: CCCCCCN1CC(=O)N[C@@H](Cc2ccc(O)cc2)C(=O)N[C@@H](CC(C)C)C(=O)N[C@@H](CC(N)=O)C(=O)N[C@@H](CCCNC(=N)N)C(=O)N(C)[C@@H](CCCC)C(=O)N[C@@H](CCCCC)C(=O)N2CCC[C@H]2C(=O)N[C@@H](C(C)(C)C)C(=O)N[C@@H](CO)C(=O)N[C@H](C(=O)NCC(N)=O)CSCC(=O)N[C@@H](Cc2ccccc2)C(=O)N[C@@H](Cc2cccc(C#N)c2)C(=O)N[C@@H](CC(=O)O)C1=O [compound 1340] ({CH2CO}-F[Phe(3-CN)]D[NHexGly]YLNR[NMeNle][Ahp(2)]P[Tle]SCG-NH2; thioether N-14)
- IC50: 36.8 nM

SMILES: CCCCCCN1CC(=O)N[C@@H](Cc2ccc(O)cc2)C(=O)N[C@@H](CC(C)C)C(=O)N[C@@H](CC(N)=O)C(=O)N[C@@H](CCCNC(=N)N)C(=O)N(C)[C@@H](CCCC)C(=O)N[C@@H](CCCCC)C(=O)N2CCC[C@H]2C(=O)N[C@@H](C(C)(C)C)C(=O)N[C@@H](CO)C(=O)N[C@H](C(=O)NCC(N)=O)CSCC(=O)N[C@@H](Cc2ccccc2)C(=O)N[C@@H](Cc2cccc(F)c2)C(=O)N[C@@H](CC(=O)O)C1=O [compound 1341] ({CH2CO}-F[Phe(3-F)]D[NHexGly]YLNR[NMeNle][Ahp(2)]P[Tle]SCG-NH2; thioether N-14)
- IC50: 19.1 nM

Results, then the compound that gave them:

- IC50: 4.5 nM
SMILES: CCCCCCN1CC(=O)N[C@@H](Cc2ccc(O)cc2)C(=O)N[C@@H](CCCC)C(=O)N[C@@H](CC(N)=O)C(=O)N[C@@H](CCCNC(=N)N)C(=O)N[C@@H](CC(C)C)C(=O)N[C@@H](CCCCC)C(=O)N2CCC[C@H]2C(=O)N[C@@H](C(C)C)C(=O)N[C@@H](CC(=O)O)C(=O)N[C@H](C(=O)NCC(=O)O)CSCC(=O)N[C@@H](Cc2ccccc2)C(=O)N[C@@H](Cc2cccc(C)c2)C(=O)N[C@@H](CC(=O)O)C1=O [compound 1329] ({CH2CO}-F[Phe(3-Me)]D[NHexGly]Y[Nle]NRL[Ahp(2)]PVDCG-OH; thioether N-14)

- IC50: 16.8 nM
SMILES: CCCCCCN1CC(=O)N[C@@H](Cc2ccc(O)cc2)C(=O)N[C@@H](CCCC)C(=O)N[C@@H](CC(=O)O)C(=O)N[C@@H](CCCNC(=N)N)C(=O)N[C@@H](CC(C)C)C(=O)N[C@@H](CCCCC)C(=O)N2CCC[C@H]2C(=O)N[C@@H](C(C)C)C(=O)N[C@@H](CC(=O)O)C(=O)N[C@H](C(=O)NC(CO)C(N)=O)CSCC(=O)N[C@@H](Cc2ccccc2)C(=O)N[C@@H](Cc2cccc(C)c2)C(=O)N[C@@H](CC(=O)O)C1=O (stereo partly drawn) [compound 1330] ({CH2CO}-F[Phe(3-Me)]D[NHexGly]Y[Nle]DRL[Ahp(2)]PVDC[ξS]-NH2; thioether N-14)

- IC50: 14.3 nM
SMILES: CCCCCCN1CC(=O)N[C@@H](Cc2ccc(O)cc2)C(=O)N[C@@H](CCCC)C(=O)N[C@@H](CC(=O)O)C(=O)N[C@@H](CCCN)C(=O)N[C@@H](CC(C)C)C(=O)N[C@@H](CCCCC)C(=O)N2CCC[C@H]2C(=O)N[C@@H](C(C)C)C(=O)N[C@@H](CC(=O)O)C(=O)N[C@H](C(=O)NC(CO)C(N)=O)CSCC(=O)N[C@@H](Cc2ccccc2)C(=O)N[C@@H](Cc2cccc(C)c2)C(=O)N[C@@H](CC(=O)O)C1=O (stereo partly drawn) [compound 1331] ({CH2CO}-F[Phe(3-Me)]D[NHexGly]Y[Nle]D[Orn]L[Ahp(2)]PVDC[ξS]-NH2; thioether N-14)

- IC50: 12.1 nM
SMILES: CCCCCCN1CC(=O)N[C@@H](Cc2ccc(O)cc2)C(=O)N[C@@H](CCCC)C(=O)N[C@@H](CC(N)=O)C(=O)N[C@@H](CCCNC(=N)N)C(=O)N[C@@H](CC(C)C)C(=O)N[C@@H](CCCCC)C(=O)N2CCC[C@H]2C(=O)N[C@@H](C(C)C)C(=O)N[C@@H](CC(=O)O)C(=O)N[C@H](C(=O)NCC(=O)O)CSCC(=O)N[C@@H](Cc2ccccc2)C(=O)N[C@@H](Cc2cccc(C(F)(F)F)c2)C(=O)N[C@@H](CC(=O)O)C1=O [compound 1332] ({CH2CO}-F[Phe(3-CF3)]D[NHexGly]Y[Nle]NRL[Ahp(2)]PVDCG-OH; thioether N-14)

- IC50: 27.6 nM
SMILES: CCCCCCN1CC(=O)N[C@@H](Cc2ccc(O)cc2)C(=O)N[C@@H](CC(C)C)C(=O)N[C@@H](CC(N)=O)C(=O)N[C@@H](CCCNC(=N)N)C(=O)N[C@@H](CC(C)C)C(=O)N[C@@H](CCCCC)C(=O)N2CCC[C@H]2C(=O)N[C@@H](C(C)C)C(=O)N[C@@H](C(C)C)C(=O)N[C@H](C(=O)NCC(=O)O)CSCC(=O)N[C@@H](Cc2ccccc2)C(=O)N[C@@H](Cc2cccc(C(F)(F)F)c2)C(=O)N[C@@H](CC(=O)O)C1=O [compound 1333] ({CH2CO}-F[Phe(3-CF3)]D[NHexGly]YLNRL[Ahp(2)]PVVCG-OH; thioether N-14)
